Measured values from the supplement of paper PMC10307832.

Compound: CN(C)C[C@@H]1CCn2cc(c3ccccc32)C2=C(C(=O)NC2=O)c2cn(c3ccccc23)CCO1 [Ruboxistaurin] + CC(=O)c1c(C)c2cnc(Nc3ccc(N4CCNCC4)cn3)nc2n(C2CCCC2)c1=O [Palbociclib] (partner 0.5 µM)
Assay: relative viability (nuclei count vs DMSO), 5 days (fraction); higher = more cells survive
How it was run: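 Medians of duplicate plates are given as relative viability. That measure is the nuclei count in treated wells divided by the count in vehicle wells. Counts were taken on 4× images of lung cancer cell lines in 1536-well plates, 5 days after pin-tool dosing the day after seeding with one drug alone or a fixed anchor-drug dose plus five library-drug doses (not always all listed) in √10 steps.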

Cell Line: COR-L 105
- relative viability (first compound 0.08 µM): 0.418
- relative viability (first compound 0.8 µM): 0.389
- relative viability (first compound 2.53 µM): 0.411
- relative viability (first compound 8 µM): 0.416

Cell Line: HCC-366
- relative viability (first compound 0.08 µM): 0.401
- relative viability (first compound 0.8 µM): 0.354
- relative viability (first compound 2.53 µM): 0.392
- relative viability (first compound 8 µM): 0.328

Cell Line: HCC-44
- relative viability (first compound 0.08 µM): 0.986
- relative viability (first compound 0.8 µM): 1
- relative viability (first compound 2.53 µM): 0.953
- relative viability (first compound 8 µM): 0.968

Cell Line: NCI-H2009
- relative viability (first compound 0.08 µM): 0.218
- relative viability (first compound 0.8 µM): 0.234
- relative viability (first compound 2.53 µM): 0.242
- relative viability (first compound 8 µM): 0.221

Cell Line: NCI-H23
- relative viability (first compound 0.08 µM): 0.492
- relative viability (first compound 0.8 µM): 0.445
- relative viability (first compound 2.53 µM): 0.53
- relative viability (first compound 8 µM): 0.461

Cell Line: NCI-H727
- relative viability (first compound 0.08 µM): 0.596
- relative viability (first compound 0.8 µM): 0.688
- relative viability (first compound 2.53 µM): 0.745
- relative viability (first compound 8 µM): 0.707

Cell Line: NCI-H1355
- relative viability (first compound 0.08 µM): 0.399
- relative viability (first compound 0.8 µM): 0.338
- relative viability (first compound 2.53 µM): 0.412
- relative viability (first compound 8 µM): 0.418

Cell Line: NCI-H1944
- relative viability (first compound 0.08 µM): 0.347
- relative viability (first compound 0.8 µM): 0.298
- relative viability (first compound 2.53 µM): 0.343
- relative viability (first compound 8 µM): 0.295

Cell Line: NCI-H2023
- relative viability (first compound 0.08 µM): 0.381
- relative viability (first compound 0.8 µM): 0.31
- relative viability (first compound 2.53 µM): 0.333
- relative viability (first compound 8 µM): 0.393

Cell Line: NCI-H1650
- relative viability (first compound 0.08 µM): 0.416
- relative viability (first compound 0.8 µM): 0.324
- relative viability (first compound 2.53 µM): 0.455
- relative viability (first compound 8 µM): 0.372

Cell Line: NCI-H1395
- relative viability (first compound 0.08 µM): 0.657
- relative viability (first compound 0.8 µM): 0.579
- relative viability (first compound 2.53 µM): 0.63
- relative viability (first compound 8 µM): 0.553

Cell Line: NCI-H2087
- relative viability (first compound 0.08 µM): 0.28
- relative viability (first compound 0.8 µM): 0.253
- relative viability (first compound 2.53 µM): 0.285
- relative viability (first compound 8 µM): 0.291

Cell Line: NCI-H838
- relative viability (first compound 0.08 µM): 0.234
- relative viability (first compound 0.8 µM): 0.19
- relative viability (first compound 2.53 µM): 0.215
- relative viability (first compound 8 µM): 0.213

Cell Line: NCI-H1793
- relative viability (first compound 0.08 µM): 0.302
- relative viability (first compound 2.53 µM): 0.296
- relative viability (first compound 8 µM): 0.373

Cell Line: LC-2-ad
- relative viability (first compound 0.08 µM): 0.469
- relative viability (first compound 0.8 µM): 0.424
- relative viability (first compound 2.53 µM): 0.45
- relative viability (first compound 8 µM): 0.532

Cell Line: HCC-78
- relative viability (first compound 0.08 µM): 0.509
- relative viability (first compound 0.8 µM): 0.47
- relative viability (first compound 2.53 µM): 0.497
- relative viability (first compound 8 µM): 0.501

Cell Line: NCI-H522
- relative viability (first compound 0.08 µM): 1.06
- relative viability (first compound 0.8 µM): 1.06
- relative viability (first compound 2.53 µM): 1.21
- relative viability (first compound 8 µM): 1.25

Cell Line: LOU-NH91
- relative viability (first compound 0.08 µM): 0.536
- relative viability (first compound 0.8 µM): 0.518
- relative viability (first compound 2.53 µM): 0.52
- relative viability (first compound 8 µM): 0.571

Cell Line: NCI-H1734
- relative viability (first compound 0.08 µM): 0.354
- relative viability (first compound 0.8 µM): 0.328
- relative viability (first compound 2.53 µM): 0.367
- relative viability (first compound 8 µM): 0.312

Cell Line: NCI-H520
- relative viability (first compound 0.08 µM): 0.236
- relative viability (first compound 0.8 µM): 0.222
- relative viability (first compound 2.53 µM): 0.246
- relative viability (first compound 8 µM): 0.185

Cell Line: UMC-11
- relative viability (first compound 0.08 µM): 0.327
- relative viability (first compound 0.8 µM): 0.388
- relative viability (first compound 2.53 µM): 0.289
- relative viability (first compound 8 µM): 0.338

Cell Line: NCI-H1755
- relative viability (first compound 0.08 µM): 0.495
- relative viability (first compound 0.8 µM): 0.452
- relative viability (first compound 2.53 µM): 0.463
- relative viability (first compound 8 µM): 0.455

Cell Line: SK-LU-1
- relative viability (first compound 0.08 µM): 0.427
- relative viability (first compound 0.8 µM): 0.342
- relative viability (first compound 2.53 µM): 0.429
- relative viability (first compound 8 µM): 0.381

Cell Line: NCI-H647
- relative viability (first compound 0.08 µM): 0.473
- relative viability (first compound 0.8 µM): 0.395
- relative viability (first compound 2.53 µM): 0.432
- relative viability (first compound 8 µM): 0.415

Cell Line: SW 1573
- relative viability (first compound 0.08 µM): 0.433
- relative viability (first compound 0.8 µM): 0.371
- relative viability (first compound 2.53 µM): 0.354
- relative viability (first compound 8 µM): 0.523

Cell Line: HCC-15
- relative viability (first compound 0.08 µM): 0.748
- relative viability (first compound 0.8 µM): 0.694
- relative viability (first compound 2.53 µM): 0.734
- relative viability (first compound 8 µM): 0.745

Cell Line: NCI-H2126
- relative viability (first compound 0.08 µM): 0.341
- relative viability (first compound 0.8 µM): 0.384
- relative viability (first compound 2.53 µM): 0.367
- relative viability (first compound 8 µM): 0.395

Cell Line: NCI-H2085
- relative viability (first compound 0.08 µM): 0.472
- relative viability (first compound 0.8 µM): 0.479
- relative viability (first compound 2.53 µM): 0.452
- relative viability (first compound 8 µM): 0.56

Cell Line: SW 900
- relative viability (first compound 0.08 µM): 0.598
- relative viability (first compound 0.8 µM): 0.499
- relative viability (first compound 2.53 µM): 0.681
- relative viability (first compound 8 µM): 0.553

Cell Line: BEN
- relative viability (first compound 0.08 µM): 0.415
- relative viability (first compound 0.8 µM): 0.453
- relative viability (first compound 2.53 µM): 0.522
- relative viability (first compound 8 µM): 0.495

Cell Line: NCI-H650
- relative viability (first compound 0.08 µM): 0.339
- relative viability (first compound 0.8 µM): 0.337
- relative viability (first compound 2.53 µM): 0.377
- relative viability (first compound 8 µM): 0.383

Cell Line: LCLC-103H
- relative viability (first compound 0.08 µM): 0.446
- relative viability (first compound 0.8 µM): 0.49
- relative viability (first compound 2.53 µM): 0.446
- relative viability (first compound 8 µM): 0.451

Cell Line: PC-14
- relative viability (first compound 0.08 µM): 0.603
- relative viability (first compound 0.8 µM): 0.452
- relative viability (first compound 2.53 µM): 0.51
- relative viability (first compound 8 µM): 0.528

Cell Line: NCI-H2228
- relative viability (first compound 0.08 µM): 0.845
- relative viability (first compound 0.8 µM): 0.631
- relative viability (first compound 2.53 µM): 0.863
- relative viability (first compound 8 µM): 0.693

Cell Line: COR-L23
- relative viability (first compound 0.08 µM): 0.261
- relative viability (first compound 0.8 µM): 0.267
- relative viability (first compound 2.53 µM): 0.313
- relative viability (first compound 8 µM): 0.372

Cell Line: NCI-H1915
- relative viability (first compound 0.08 µM): 0.542
- relative viability (first compound 0.8 µM): 0.482
- relative viability (first compound 2.53 µM): 0.536
- relative viability (first compound 8 µM): 0.421
